Laboratory results from patent US20220098184A1, “SOLID DISPERSION FORMULATIONS OF AN FXR AGONIST” (Terms Pharmaceuticals, Inc., priority 2020, published 2022).

Tests used:
[1] = Solubility study in phosphate buffer (pH=6.8), agitated at 37° C., filtrate measured by UV-vis; assay type: physicochemical; conditions: phosphate buffer pH 6.8, 37° C.
Method: Compound I, Compound U/Kollidon® VA 64 solid dispersion prepared according to Example 1, and Compound U/Soluplus® solid dispersion prepared according to Example 1 were dissolved in phosphate buffer (pH=6.8) and the resulting mixtures were agitated at 37° C. Samples were taken at 15 minutes, 30 minutes, 60 minutes, 120 minutes, 4 hours, 8 hours, and 24 hours.

[2] = Phase 1 randomized, open-label study in healthy subjects (PK, safety and tolerability); assay type: in vivo, human; conditions: all treatment groups
Method: A Phase 1 randomized, open-label study was conducted in 16 healthy subjects. PK samples of Compound I were obtained up to 72 hours after single oral administration of: 1) 5-mg strength and 25-mg strength tablets (prepared according to Example 3) in 16 fasted subjects; 2) 25-mg strength capsule (containing 25 mg Compound I not in a solid dispersion) in 8 fasted subjects; and 3) 5-mg strength tablet (prepared according to Example 3) in 8 subjects after a high-fat, high calorie meal. Safety and tolerability of the tablets and capsule were also assessed.

[3] = Tissue distribution of Compound I (liver vs other tissues); assay type: in vivo; conditions: liver relative to plasma, kidney, lungs, heart, and skin, read-out: Concentration in the liver relative to other tissues
[4] = BCS classification / aqueous solubility; assay type: physicochemical

SMILES: Cn1cc(C(=O)O)c2ccc(N3CCC(OCc4c(-c5c(Cl)cccc5Cl)noc4C4CC4)CC3)cc21 [Compound I, 6-(4-((5-cyclopropyl-3-(2,6-dichlorophenyl)isoxazol-4-yl)methoxy)piperidin-1-yl)-1-methyl-1H-indole-3-carboxylic acid]
- Solubility in phosphate buffer (in words) [1]: low solubility
- Concentration of Compound I ([1]; 15 min): 86 ng/mL
- Concentration of Compound I ([1]; 30 min): 166 ng/mL
- Concentration of Compound I ([1]; 60 min): 172 ng/mL
- Concentration of Compound I ([1]; 120 min): 188 ng/mL
- Concentration of Compound I ([1]; 4 hrs): 166 ng/mL
- Concentration of Compound I ([1]; 8 hrs): 207 ng/mL
- Concentration of Compound I ([1]; 24 hrs): 250 ng/mL
- Safety and tolerability [2]: safe and well tolerated
- Kp [3]: ~20
- Aqueous solubility (in words) [4]: low aqueous solubility
- BCS class [4]: BCS class II
